How the values were obtained:
Type in all cases: cell-based
PC3 cells = test: Cell morphology and actin cytoskeleton in 2D monolayer culture; details: PC3, 2D, 72h
Method: As a control, we also tested morphologies treated with the same panel of anti-invasive compounds 4, 5, 6, 16 and 20 as well as betulin (1) on PC3 cells grown in 2D monolayer cultures (S9 Fig).
Supplementary file pone.0126111.s009.tif: S9 Fig Morphologies of PC-3, LNCaP and Ep156T cells in 2D monolayer culture, exposed 72h to selected betulin derivatives. Actin cytoskeleton (filamentous or F- actin) is stained green (LifeAct), nuclei with a red dye (confocal microscope images, 40× objective, scale bar shown for each panel on the right lower corner). (TIF) Click here for additional data file.

LAPC-4 = test: Secondary 3D screen (spheroid size, complexity, cell death); details: yellow and red clusters
Description: Next, the 25 selected betulin derivatives depicted in Figs 1–3 including control compounds were again thoroughly tested across the same panel of prostate-derived cell lines already used in the preliminary, 2D high-throughput screen. The resulting dendrograms were either generated separately for each cell line (S4 Fig), combined into a single dendrogram (Fig 5A), or shown as reduced organoid sizes (area; Fig 5B).
Fig 5 Secondary 3D screens. Experimental betulin derivatives and control compounds were tested across a panel of prostate cancer lines (LNCaP, LAPC-4) and non-transformed, prostate epithelial cells (EP156T) in 3D culture. A) The dendrogram is based on three main morphological parameters and combines all data from primary and secondary 3D screens. […] B) Boxplots showing the impact of selected compounds on spheroid size (Area). Data scaling: as described in Fig 4 C) Effects of all betulin derivatives and control compounds on cell death (number of dead cells).
All 3D cultures were done in growth factor-free Matrigel Basement-membrane Matrix (Corning Inc., New York, NY, USA) using 96-well Angiogenesis μ-plates (ibidi GmbH, Munich, Germany) as described before.[38] “Sandwich” assays in short: bottom wells of cooled Angiogenesis plates were filled with 10 μL 4 mg/mL Matrigel, centrifuged for 20 min 200 g and incubated at 37°C temperature for approximately 30–60 min or until the ECM had polymerized. 1,000–1,500 cells were mixed in 2 mg/mL ECM-medium, and 20 μL of cell suspension was added in each well. The plates were centrifuged for 10 min at 100 g, or until the cells had settled on top of the lower ECM. Finally, the outer wells and side reservoirs were filled with water for humidification, and the culture plates placed into the incubator for 3–4 h or overnight. The following day, 60 μL of cell culture medium were added; refreshed every third day by carefully aspirating the medium. This “sandwich” setting allows almost unifocal alignment of cells and 3D structures in a single optical plane, thus reducing the time required for confocal stack imaging.
All control compounds were purchased from Selleck (Munich, Germany), except for staurosporine (Sigma-Aldrich, St. Louis, MO, USA) and Y-27632 (Tocris, Bristol, UK) and dissolved in dimethyl sulfoxide (DMSO) as a vehicle at 10 mM. In the primary and secondary 3D screens, experimental and control compound exposures were performed in triplicates. Four concentrations for each compound were applied (0.03, 0.1, 0.3 and 1 μM). Compound treatments were initiated four days after cell embedding, and continued for six days after which spheroids were stained and imaged.
Supplementary file pone.0126111.s004.eps: S4 Fig Secondary screens. Dendrograms for A) LNCaP, B) LAPC-4, and C) Ep156T betulin screens in 3D culture have been constructed using three main read-outs: spheroid size, spheroid complexity, and cell death. […] (EPS) Click here for additional data file.

PC-3 cells = test: Primary 3D screen in Matrigel ECM, morphometric image analysis (AMIDA) of invasion, growth and cell death; details: for concentration suppressing the invasive transformation (roundness %): PC-3 spheroids, over 6 days; for anti-invasive effects in 3D culture (in words): 0.03-1 μM
Method: Three standard of care compounds widely used against PrCa were added as controls; namely, the androgen receptor antagonist enzalutamide (MDV3100), the C17α-hydroxylase/C17,20-lyase inhibitor abiraterone (Zytiga), and the classic mitotic inhibitor paclitaxel. Treatments started at day 4, when well-differentiated round acini were established.
The live 3D cell cultures were then stained with reactive dyes Calcein AM to detect living, and ethidium homodimer to detect dead cells. Images (Fig 4A) were acquired with confocal microscope and image data were analyzed with the AMIDA software. The principles of morphometric image analysis are briefly outlined in S2 Fig.
Fig 4 Primary 3D screen. PC-3 cells were cultured in 3D Matrigel ECM for 4 days and treated for 6 days with 25 betulin derivatives (from 2D high throughput screens), DMSO/vehicle control, and three reference compounds. A) Representative maximum intensity projections of confocal microscope stack images for selected compound treatments at 300 nM concentration (5× objective, scale 100 μm). B) Three graphs showing the relative impact on three morphometric parameters for 7 betulin derivatives, DMSO control, and one control compound (paclitaxel). […] C) Hierarchical clustering was done using three morphological parameters derived from PC3 organoids: spheroid size (area), complexity and the number of dead cells. D) Wound healing curves of the two betulin derivatives 4 and 20, highlighting the 50% cut-off level (orange dashed line).
Next, statistical analyses were performed to interpret the complex image data (Fig 4B and 4C). For simplicity, we focused on only three, basic morphologic parameters from the multiparametric AMIDA readout (Fig 4B): 1) Area (indicating growth of organoids), 2) structural Complexity (as a measure of the intensity of invasion), and 3) Relative Area of dead cells within organoids (red signal as a measure of cytoxicity or apoptosis). Area (Size of organoids; Fig 4B, upper panel) was measured as the number of pixels within a segmented structure. […] Shape Complexity (Fig 4B, middle panel) was obtained using the structure size (area) and perimeter (number of border pixels). The more regular the shape of an organoid, the closer it is to a perfect circle, thus minimizing the perimeter relative to object size. […] Deviations from this average (residuals) were interpreted as a measure for the shape complexity of organoids. As a logical lower limit for this measure (represented by a perfect circle), we adjusted the intercept (height level) of the regression line to render all returned residuals as positive numbers.
All 3D cultures were done in growth factor-free Matrigel Basement-membrane Matrix (Corning Inc., New York, NY, USA) using 96-well Angiogenesis μ-plates (ibidi GmbH, Munich, Germany) as described before.[38] “Sandwich” assays in short: bottom wells of cooled Angiogenesis plates were filled with 10 μL 4 mg/mL Matrigel, centrifuged for 20 min 200 g and incubated at 37°C temperature for approximately 30–60 min or until the ECM had polymerized. 1,000–1,500 cells were mixed in 2 mg/mL ECM-medium, and 20 μL of cell suspension was added in each well. The plates were centrifuged for 10 min at 100 g, or until the cells had settled on top of the lower ECM. Finally, the outer wells and side reservoirs were filled with water for humidification, and the culture plates placed into the incubator for 3–4 h or overnight. The following day, 60 μL of cell culture medium were added; refreshed every third day by carefully aspirating the medium.

[1] = PC-3 in 3D Matrigel, 6 days treatment

Row | SMILES | morphology and actin cytoskeleton of cells in 2D monolayer (PC3 cells) | efficacy in 3D LAPC-4 culture (dendrogram clusters) (LAPC-4) | concentration at which anti-invasive effects are seen in 3D (PC-3 cells; [1]) | concentration suppressing the invasive transformation (roundness %) (PC-3 cells) | anti-invasive effects in 3D culture (in words) (PC-3 cells; [1]) | effect on morphometric measures (area, complexity, dead cells) (PC-3 cells; PC-3 in 3D Matrigel, paclitaxel at 30 and 100 nM)
1 | CC(C)[C@@H]1CC[C@]2(C(=O)O)CC[C@]3(C)C(CCC4[C@@]5(C)Cc6cnoc6C(C)(C)C5CC[C@]43C)C12 (stereo partly shown) [Compound 4] | No morphologies and visible effects on the actin cytoskeleton | most active | – | – | – | –
2 | C=C(C)[C@@H]1CC[C@]2(C(=O)O)CC[C@]3(C)C(CCC4[C@@]5(C)Cc6cnoc6C(C)(C)C5CC[C@]43C)C12 (stereo partly shown) [Compound 5] | No morphologies and visible effects on the actin cytoskeleton | – | 300 nM | over 300 nM | – | –
3 | C=C(C)[C@@H]1CC[C@]2(C(=O)O)CC[C@]3(C)C(CCC4[C@@]5(C)Cc6c[nH]nc6C(C)(C)C5CC[C@]43C)C12 (stereo partly shown) [Compound 6] | No morphologies and visible effects on the actin cytoskeleton | most active | – | – | even more potent and proved to be specifically anti-invasive | –
4 | C=C(C)[C@@H]1CC[C@]2(C(=O)O)CC[C@]3(C)C(CCC4[C@@]5(C)Cc6cccnc6C(C)(C)C5CC[C@]43C)C12 (stereo partly shown) [Compound 19] | – | most active | – | – | potently anti-invasive at significantly lower concentrations | –
5 | C=C(C)[C@@H]1CC[C@]2(C(=O)O)CC[C@]3(C)C(CCC4[C@@]5(C)Cc6ncccc6C(C)(C)C5CC[C@]43C)C12 (stereo partly shown) [Compound 20] | No morphologies and visible effects on the actin cytoskeleton | most active | – | over 300 nM | potently anti-invasive at significantly lower concentrations | –
6 | CC(=O)O[C@H]1C(=O)[C@@]2(C)[C@H]([C@H](OC(=O)c3ccccc3)[C@]3(O)C[C@H](OC(=O)[C@H](O)[C@@H](NC(=O)c4ccccc4)c4ccccc4)C(C)=C1C3(C)C)[C@]1(OC(C)=O)CO[C@@H]1C[C@@H]2O [Paclitaxel, paclitaxel, reference compound] | – | efficacy of all positive controls | – | – | – | strong effect on all morphometric measures

— paper PMC4428838, “Optimization of Invasion-Specific Effects of Betulin Derivatives on Prostate Cancer Cells through Lead Development” (PLoS ONE, 2015)
